Measurements as given in patent publication US7928098B2, “Therapeutic and/or preventive agents for a sleep disorder” (Kyowa Hakko Kirin Co., Ltd., priority 2005, dated 2011).

| SMILES | melting point |
| --- | --- |
| O=C(Nc1nc(-c2ccco2)c(C(=O)c2cccnc2)s1)c1ccco1 [Compound 214, N-[4-(2-Furyl)-5-(pyridin-3-ylcarbonyl)thiazol-2-yl]furan-2-carboxamide] | 234 to 236 °C |
| CC(=O)N1CCN(CC(=O)Nc2nc(-c3ccco3)c(C(=O)c3ccccn3)s2)CC1 [Compound 183, 2-(4-Acetylpiperazin-1-yl)-N-[4-(2-furyl)-5-(pyridin-2-ylcarbonyl)thiazol-2-yl]acetamide] | 170 to 171 °C |
| O=C(Nc1nc(-c2ccco2)c(C(=O)c2ccn(Cc3ccccc3)c2)s1)c1ccncc1 [Compound 263, N-[5-(1-Benzylpyrrol-3-ylcarbonyl)-4-(2-furyl)thiazol-2-yl]pyridine-4-carboxamide] | 175 to 178 °C |
| O=C(Nc1nc(-c2ccco2)c(C(=O)C2CCOCC2)s1)c1ccccc1F [Compound 371, 2-Fluoro-N-[4-(2-furyl)-5-(tetrahydropyran-4-ylcarbonyl)-thiazol-2-yl]benzamide] | 172 to 176 °C |
| O=C(Nc1nc(-c2ccco2)c(C(=O)C2CCC2)s1)c1ccco1 [Compound 331, N-[5-(Cyclobutylcarbonyl)-4-(2-furyl)thiazol-2-yl]furan-2-carboxamide] | 188 to 192 °C |
| Cc1cc(C(=O)Nc2nc(-c3ccco3)c(C(=O)C3CCC(=O)CC3)s2)ccn1 [Compound 354, N-[4-(2-Furyl)-5-(4-oxocyclohexylcarbonyl)thiazol-2-yl]-2-methylpyridine-4-carboxamide] | 108 to 115 °C |
| O=C(Nc1nc(-c2ccco2)c(C(=O)c2ccccc2)s1)c1ccnc(CN2CCOCC2)c1 [Compound 52, N-[5-Benzoyl-4-(2-furyl)thiazol-2-yl]-2-(morpholinomethyl)pyridine-4-carboxamide] | 212 to 213 °C |
| Cc1cccc(C(=O)c2sc(NC(=O)c3ccncc3)nc2-c2ccco2)n1 [Compound 192, N-[4-(2-Furyl)-5-(6-methylpyridin-2-ylcarbonyl)thiazol-2-yl]pyridine-4-carboxamide] | 238 to 241 °C |
| CC(C)C(=O)c1sc(NC(=O)C2CC2)nc1-c1ccco1 [Compound 301, N-[4-(2-Furyl)-5-isobutyrylthiazol-2-yl]cyclopropanecarboxamide] | 178 to 182 °C |
| COc1ccccc1C(=O)Nc1nc(-c2ccco2)c(C(=O)c2ccccn2)s1 [Compound 108, N-[4-(2-Furyl)-5-(pyridin-2-ylcarbonyl)thiazol-2-yl]-2-methoxybenzamide] | 205 to 208 °C |
| COc1cc(C(=O)Nc2nc(-c3ccco3)c(C(=O)c3ccccn3)s2)cc(OC)c1OC [Compound 112, N-[4-(2-Furyl)-5-(pyridin-2-ylcarbonyl)thiazol-2-yl]-3,4,5-trimethoxybenzamide] | 172 to 180 °C (dec.) |
| CC(C)(C)C(=O)c1sc(NC(=O)C2CC2)nc1-c1ccco1 [Compound 307, N-[4-(2-Furyl)-5-pivaloylthiazol-2-yl]cyclopropanecarboxamide] | 133 to 134 °C |
| O=C(Nc1nc(-c2ccco2)c(C(=O)C2CCOCC2)s1)c1cccc2c1OC(F)(F)O2 [Compound 402, 2,2-Difluoro-N-[4-(2-furyl)-5-(tetrahydropyran-4-ylcarbonyl)thiazol-2-yl]-1,3-benzodioxol-4-carboxamide] | 206 to 207 °C |
| COCCCNC(=O)Nc1nc(-c2ccco2)c(C(=O)c2ccccn2)s1 [Compound 169, N-[4-(2-Furyl)-5-(pyridin-2-ylcarbonyl)thiazol-2-yl]-N′-(3-methoxypropyl)urea] | 169 to 170 °C |
| O=C(Nc1nc(-c2ccco2)c(C(=O)C2CCOCC2)s1)c1cccs1 [Compound 422, N-[4-(2-Furyl)-5-(tetrahydropyran-4-ylcarbonyl)thiazol-2-yl]thiophene-2-carboxamide] | 231 to 232 °C |
| CC(=O)Nc1nc(-c2ccco2)c(C(=O)c2ccccn2)s1 [Compound 96, N-[4-(2-Furyl)-5-(pyridin-2-ylcarbonyl)thiazol-2-yl]-acetamide] | 216 to 217 °C |
| O=C(Nc1nc(-c2ccco2)c(C(=O)C2CCCCC2)s1)c1ccncc1 [Compound 344, N-[5-(Cyclohexylcarbonyl)-4-(2-furyl)thiazol-2-yl]pyridine-4-carboxamide] | 197 to 199 °C |
| O=C(Nc1nc(-c2ccco2)c(C(=O)c2ccc(N3CCC(O)CC3)nc2)s1)c1ccncc1 [Compound 233, N-{4-(2-Furyl)-5-[2-(4-hydroxypiperidino)pyridin-5-ylcarbonyl]thiazol-2-yl}pyridine-4-carboxamide] | 264 to 268 °C |
| COc1ccccc1C(=O)Nc1nc(-c2ccco2)c(C(=O)C2CCOCC2)s1 [Compound 366, N-[4-(2-Furyl)-5-(tetrahydropyran-4-ylcarbonyl)thiazol-2-yl]-2-methoxybenzamide] | 181 to 184 °C |
| COc1cc(C(=O)c2sc(NC(=O)c3ccncc3)nc2-c2ccco2)ccn1 [Compound 243, N-[4-(2-Furyl)-5-(2-methoxypyridin-4-ylcarbonyl)thiazol-2-yl]pyridine-4-carboxamide] | 237 to 239 °C |
| CCCC(=O)c1sc(NC(=O)c2ccncc2)nc1-c1ccco1 [Compound 289, N-[5-Butyryl-4-(2-furyl)thiazol-2-yl]pyridine-4-carboxamide] | 191 to 194 °C |
| CN1CCC(OC(=O)Nc2nc(-c3ccco3)c(C(=O)c3ccccn3)s2)CC1 [Compound 162, 1-Methylpiperidine-4-yl N-[4-(2-furyl)-5-(pyridin-2-ylcarbonyl)thiazol-2-yl]carbamate] | 222 to 225 °C |
| CCn1cc(C(=O)Nc2nc(-c3ccco3)c(C(=O)C3CCOCC3)s2)cn1 [Compound 425, 1-Ethyl-N-[4-(2-furyl)-5-(tetrahydropyran-4-ylcarbonyl)-thiazol-2-yl]pyrazole-4-carboxamide] | 170 to 174 °C |
| Cn1cc(-c2sc(NC(=O)c3ccncc3)nc2-c2ccco2)ccc1=O [Compound 38, N-[4-(2-Furyl)-5-(1-methyl-2-oxo-1,2-dihydropyridin-5-yl)thiazol-2-yl]pyridine-4-carboxamide] | 294 to 295 °C |
| CC1(C(=O)Nc2nc(-c3ccco3)c(C(=O)c3ccccn3)s2)CC1 [Compound 100, N-[4-(2-Furyl)-5-(pyridin-2-ylcarbonyl)thiazol-2-yl]-1-methylcyclopropanecarboxamide] | 195 to 196 °C |
| O=C(Nc1nc(-c2ccco2)c(C(=O)c2ccccn2)s1)OC(CF)CF [Compound 163, 2-Fluoro-1-(fluoromethyl)ethyl N-[4-(2-furyl)-5-(pyridin-2-ylcarbonyl)thiazol-2-yl]carbamate] | 158 to 159 °C |
| Cc1cnc(C(=O)Nc2nc(-c3ccco3)c(C(=O)C3CCOCC3)s2)cn1 [Compound 415, N-[4-(2-Furyl)-5-(tetrahydropyran-4-ylcarbonyl)thiazol-2-yl]-5-methylpyrazine-2-carboxamide] | 130 to 131 °C |
| O=C(CN1CCN(c2ccccn2)CC1)Nc1nc(-c2ccco2)c(C(=O)c2ccccn2)s1 [Compound 185, N-[4-(2-Furyl)-5-(pyridin-2-ylcarbonyl)thiazol-2-yl]-2-[4-(2-pyridyl)piperazin-1-yl]acetamide] | 215 to 218 °C |
